SMILES strings stand for the structures.

A word on the IC50: it is the point on the concentration scale where inhibition reaches its midpoint. Read a high IC50 as weaker potency in that assay. Broadly, the Ki is the dissociation constant of the complex between target and ligand, obtained from inhibition or displacement.

One assay deals with EtCRK2 (Eimeria tenella, UniProt Q6R8F0). Description: TR-FRET. It is filed as biochemical. On the technique in general: In TR-FRET formats the signal depends on donor and acceptor labels being close together.
A further assay deals with HsCDK2 (Homo sapiens, UniProt P24941). The experiment in a line: biochemical.
Assay [1] deals with E. tenella schizont development. Description: Schizont maturation assay. In kind it is cell-based, Eimeria tenella. The conditions noted are these: n=2.

Sequence of EtCRK2 (Q6R8F0 1-296): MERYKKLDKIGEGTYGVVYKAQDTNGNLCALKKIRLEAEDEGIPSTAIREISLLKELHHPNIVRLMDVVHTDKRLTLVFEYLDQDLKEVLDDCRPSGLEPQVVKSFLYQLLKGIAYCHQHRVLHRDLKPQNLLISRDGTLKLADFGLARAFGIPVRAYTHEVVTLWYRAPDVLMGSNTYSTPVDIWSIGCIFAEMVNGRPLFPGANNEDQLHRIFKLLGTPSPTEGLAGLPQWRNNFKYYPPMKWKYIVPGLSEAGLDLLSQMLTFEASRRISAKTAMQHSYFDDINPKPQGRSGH

On EtCRK2, `Cc1c(CCC(=O)O)c(=O)n2c([nH]c3ccccc32)c1C#N` [BES241415, 3-(4-cyano-3-methyl-1-oxo-5H-pyrido[1,2-a]benzimidazol-2-yl)propanoic acid] yielded an IC50 of 61 ± 27 µM and a Ki of 83 ± 29 µM.

On to `CCN(CC)S(=O)(=O)c1ccc2c3c(cccc13)C(=O)N2` [BES143551, N,N-diethyl-2-oxo-1,2-dihydrobenzo[cd]indole-6-sulfonamide], for which, at HsCDK2, it took 12 ± 7 µM to reach half-maximal inhibition (IC50) and the affinity corresponds to a Ki of 2 ± 1 µM. On EtCRK2, this molecule returned an IC50 of 36 ± 8 µM and a Ki of 6 ± 2 µM.

On HsCDK2, `O=C1NC(=Nc2nc3cc([N+](=O)[O-])ccc3[nH]2)NC1=O` [BES252034, 2-[(5-nitro-1H-benzimidazol-2-yl)imino]imidazolidine-4,5-dione] registered an IC50 of 35 ± 3 µM and an inhibitory constant (Ki) of 8 ± 2 µM. At EtCRK2, this molecule displayed a concentration for half-maximal inhibition (IC50) of 15 ± 3 µM and an inhibition constant (Ki) of 8 ± 2 µM.

`CN1CC[C@H](c2c(O)cc(O)c3c(=O)cc(-c4ccccc4Cl)oc23)[C@H](O)C1` [Flavopiridol, 2-(2-Chlorophenyl)-5,7-dihydroxy-8-[(3S,4R)-3-hydroxy-1-methyl-4-piperidinyl]-4H-1-benzopyran-4-one]: the “inhibition of E. tenella schizont development” value was “fully inhibited” in assay [1] (150 nM), “fully inhibited” in assay [1] (300 nM) and “no inhibitory effects” in assay [1] (concentrations below 80 nM).

As to `O=C(O)CN1C(=O)/C(=C2\SC(=S)NC2=O)c2ccccc21` [BES062021, 2-[(3Z)-2-oxo-3-(4-oxo-2-thioxo-thiazolidin-5-ylidene)indolin-1-yl]acetic acid], the 50% inhibitory concentration (IC50) against HsCDK2 turned out to be 26 ± 19 µM; on EtCRK2 it was 23 ± 14 µM. Moreover, the Ki at HsCDK2 was 17 ± 8 µM; at EtCRK2, 16 ± 9 µM.

These data come from PMC3252702 (ChemMedChem, 2010).
